Measured values taken from ChEMBL document CHEMBL5465560, “Selectivity Literature for EUbOPEN Chemogenomic Library” (2024).

What was measured:
[1] = target: RAC-alpha serine/threonine-protein kinase (Homo sapiens, UniProt P31749); test: Selectivity interaction (KinomeScan (DiscoverX)) EUB0001049a AKT1; conditions: at 1 µM
[2] = target: Serine/threonine-protein kinase MRCK gamma (Homo sapiens) (UniProt Q6DT37); test: Selectivity interaction (KinomeScan (DiscoverX)) EUB0001079a CDC42BPG; conditions: at 1 µM
[3] = target: Serine/threonine-protein kinase pim-1 (Homo sapiens, UniProt P11309); test: Selectivity interaction (KinomeScan (DiscoverX)) EUB0001079a PIM1; conditions: at 1 µM
[4] = target: Receptor-type tyrosine-protein kinase FLT3 (Homo sapiens) (UniProt P36888); test: Selectivity interaction (SelectScreen Kinase Profiling (Thermo Fisher Scientific)) EUB0001558a FLT3; conditions: at 1 µM
[5] = target: SRSF protein kinase 2 (Homo sapiens) (UniProt P78362); test: Selectivity interaction (ActivX KiNativ screen (kinase selectivity in THP-1 cell lysates)) EUB0000639a SRPK2; type: subcellular; conditions: lysate
[6] = target: Phosphatidylinositol 3-kinase catalytic subunit type 3 (Homo sapiens, UniProt Q8NEB9); test: Selectivity interaction (ActivX KiNativ screen (kinase selectivity in THP-1 cell lysates)) EUB0000639a PIK3C3; type: subcellular; conditions: lysate
[7] = system: T1, Receptor-type tyrosine-protein kinase FLT3 (Homo sapiens), P36888 [N841I]; test: Selectivity interaction (KinomeScan (DiscoverX)) EUB0000092b FLT3; conditions: at 10 µM
T1 sequence (whole entry): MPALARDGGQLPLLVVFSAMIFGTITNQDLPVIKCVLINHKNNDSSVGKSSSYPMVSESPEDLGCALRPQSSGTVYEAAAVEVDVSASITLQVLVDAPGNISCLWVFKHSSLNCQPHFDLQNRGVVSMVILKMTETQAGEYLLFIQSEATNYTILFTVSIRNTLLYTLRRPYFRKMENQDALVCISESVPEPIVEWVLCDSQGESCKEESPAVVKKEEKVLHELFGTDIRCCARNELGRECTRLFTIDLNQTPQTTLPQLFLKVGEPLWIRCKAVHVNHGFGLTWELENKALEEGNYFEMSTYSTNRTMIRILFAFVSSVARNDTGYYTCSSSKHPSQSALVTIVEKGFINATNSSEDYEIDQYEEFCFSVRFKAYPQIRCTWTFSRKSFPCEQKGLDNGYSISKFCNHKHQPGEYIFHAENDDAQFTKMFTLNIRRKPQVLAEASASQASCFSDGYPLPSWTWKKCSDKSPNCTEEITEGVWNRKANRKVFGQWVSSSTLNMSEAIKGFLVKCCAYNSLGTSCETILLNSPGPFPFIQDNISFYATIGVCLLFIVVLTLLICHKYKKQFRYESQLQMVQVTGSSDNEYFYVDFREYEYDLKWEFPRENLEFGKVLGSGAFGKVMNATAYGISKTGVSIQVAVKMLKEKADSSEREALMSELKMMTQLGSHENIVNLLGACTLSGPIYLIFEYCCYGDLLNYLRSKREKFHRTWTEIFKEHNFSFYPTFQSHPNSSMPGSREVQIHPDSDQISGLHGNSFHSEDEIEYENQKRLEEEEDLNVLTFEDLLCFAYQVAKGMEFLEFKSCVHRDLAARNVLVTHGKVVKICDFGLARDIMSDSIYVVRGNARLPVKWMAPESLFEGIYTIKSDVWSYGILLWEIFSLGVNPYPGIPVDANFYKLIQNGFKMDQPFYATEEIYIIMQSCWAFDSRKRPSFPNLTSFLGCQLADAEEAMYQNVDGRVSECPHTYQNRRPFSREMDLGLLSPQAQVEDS

[8] = target: Serine/threonine-protein kinase tousled-like 2 (Homo sapiens) (UniProt Q86UE8); test: Selectivity interaction (Ambit KINOMEscan and KiNATiv profiling in Jurkat cells) EUB0000090b TLK2; type: cell-based; conditions: at 1 µM
[9] = target: Phosphatidylinositol 4-kinase alpha (Homo sapiens, UniProt P42356); test: Selectivity interaction (ActivX KiNativ screen (ex vivo kinase selectivity in human PBMCs)) EUB0001619a PI4KA; type: cell-based; conditions: PBMC, at 1 µM
[10] = target: Rho-associated protein kinase 2 (Homo sapiens, UniProt O75116); test: Selectivity interaction (KinomeScan (DiscoverX)) EUB0000607a ROCK2; conditions: at 10 µM
[11] = target: T2, Receptor-interacting serine/threonine-protein kinase 4 (Homo sapiens) (UniProt P57078); test: Selectivity interaction (KinomeScan (DiscoverX)) EUB0000607a RIPK4; conditions: at 10 µM
T2 sequence (whole entry): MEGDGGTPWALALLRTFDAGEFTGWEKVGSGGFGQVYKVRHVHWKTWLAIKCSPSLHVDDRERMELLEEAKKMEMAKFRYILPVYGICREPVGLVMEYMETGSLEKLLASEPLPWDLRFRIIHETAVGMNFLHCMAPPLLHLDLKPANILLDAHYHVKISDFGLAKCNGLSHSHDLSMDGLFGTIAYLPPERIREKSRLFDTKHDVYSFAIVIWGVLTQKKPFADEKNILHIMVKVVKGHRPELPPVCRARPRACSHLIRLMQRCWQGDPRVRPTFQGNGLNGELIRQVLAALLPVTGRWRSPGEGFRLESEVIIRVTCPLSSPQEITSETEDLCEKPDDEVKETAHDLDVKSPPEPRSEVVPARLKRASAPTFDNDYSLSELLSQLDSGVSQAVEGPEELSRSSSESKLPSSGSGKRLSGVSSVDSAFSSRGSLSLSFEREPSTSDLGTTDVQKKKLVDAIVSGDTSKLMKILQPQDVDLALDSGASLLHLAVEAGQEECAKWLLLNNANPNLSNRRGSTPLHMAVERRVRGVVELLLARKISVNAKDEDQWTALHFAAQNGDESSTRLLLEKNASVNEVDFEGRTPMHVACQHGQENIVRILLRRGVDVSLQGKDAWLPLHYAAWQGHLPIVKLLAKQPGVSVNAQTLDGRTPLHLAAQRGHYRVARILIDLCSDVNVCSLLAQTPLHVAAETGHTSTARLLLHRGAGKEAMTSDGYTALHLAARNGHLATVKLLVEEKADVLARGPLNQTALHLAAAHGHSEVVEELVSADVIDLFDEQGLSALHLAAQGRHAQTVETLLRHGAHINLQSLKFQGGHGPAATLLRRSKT

[12] = target: Ephrin type-A receptor 2 (Homo sapiens) (UniProt P29317); test: Selectivity interaction (KinomeScan (DiscoverX)) EUB0000607a EPHA2; conditions: at 10 µM
Sequence of Ephrin type-A receptor 2 (Homo sapiens) (P29317 whole entry): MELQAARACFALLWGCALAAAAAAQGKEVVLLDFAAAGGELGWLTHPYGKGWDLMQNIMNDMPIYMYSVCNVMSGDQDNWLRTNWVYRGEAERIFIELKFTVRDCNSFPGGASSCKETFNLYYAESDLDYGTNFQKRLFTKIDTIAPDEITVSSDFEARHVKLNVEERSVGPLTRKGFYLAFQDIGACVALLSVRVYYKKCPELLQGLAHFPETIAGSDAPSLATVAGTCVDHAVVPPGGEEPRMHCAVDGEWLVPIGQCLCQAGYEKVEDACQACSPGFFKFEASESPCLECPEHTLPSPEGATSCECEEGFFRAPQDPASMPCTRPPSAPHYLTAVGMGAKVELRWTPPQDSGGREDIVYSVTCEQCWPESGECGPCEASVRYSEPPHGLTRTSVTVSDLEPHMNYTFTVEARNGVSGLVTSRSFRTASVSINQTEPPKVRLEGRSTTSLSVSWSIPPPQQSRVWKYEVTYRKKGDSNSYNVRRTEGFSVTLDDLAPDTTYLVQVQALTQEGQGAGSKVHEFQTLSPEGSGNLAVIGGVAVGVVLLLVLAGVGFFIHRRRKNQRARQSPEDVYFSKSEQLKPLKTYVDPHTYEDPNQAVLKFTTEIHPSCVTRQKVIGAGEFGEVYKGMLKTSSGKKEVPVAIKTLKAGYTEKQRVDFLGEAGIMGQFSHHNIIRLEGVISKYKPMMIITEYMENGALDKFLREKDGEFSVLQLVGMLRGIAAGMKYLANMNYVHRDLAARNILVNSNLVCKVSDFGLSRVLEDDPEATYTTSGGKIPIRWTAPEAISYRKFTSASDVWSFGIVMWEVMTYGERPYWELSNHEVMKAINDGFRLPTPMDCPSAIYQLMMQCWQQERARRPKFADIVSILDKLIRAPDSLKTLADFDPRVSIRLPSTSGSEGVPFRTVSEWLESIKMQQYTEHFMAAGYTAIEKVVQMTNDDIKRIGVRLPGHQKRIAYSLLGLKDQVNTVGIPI

Sequence of SRSF protein kinase 2 (Homo sapiens) (P78362 whole entry, looked up): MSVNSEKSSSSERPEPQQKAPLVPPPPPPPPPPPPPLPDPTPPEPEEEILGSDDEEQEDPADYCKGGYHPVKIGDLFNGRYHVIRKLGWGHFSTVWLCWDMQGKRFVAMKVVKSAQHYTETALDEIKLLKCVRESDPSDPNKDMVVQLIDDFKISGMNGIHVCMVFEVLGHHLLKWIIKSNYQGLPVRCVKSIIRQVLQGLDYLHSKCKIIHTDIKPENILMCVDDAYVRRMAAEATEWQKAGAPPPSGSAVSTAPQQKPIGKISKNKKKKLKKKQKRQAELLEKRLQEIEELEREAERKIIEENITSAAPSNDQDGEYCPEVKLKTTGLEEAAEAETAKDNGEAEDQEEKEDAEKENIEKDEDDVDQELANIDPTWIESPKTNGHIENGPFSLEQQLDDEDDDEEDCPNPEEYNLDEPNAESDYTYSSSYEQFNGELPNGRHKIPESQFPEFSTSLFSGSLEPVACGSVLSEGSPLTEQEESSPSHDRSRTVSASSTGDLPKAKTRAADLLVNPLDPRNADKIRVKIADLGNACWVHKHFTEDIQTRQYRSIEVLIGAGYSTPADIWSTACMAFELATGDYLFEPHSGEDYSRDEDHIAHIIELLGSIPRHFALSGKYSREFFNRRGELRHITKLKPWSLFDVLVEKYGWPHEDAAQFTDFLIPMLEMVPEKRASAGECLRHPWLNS
Sequence of Phosphatidylinositol 3-kinase catalytic subunit type 3 (Q8NEB9 whole entry): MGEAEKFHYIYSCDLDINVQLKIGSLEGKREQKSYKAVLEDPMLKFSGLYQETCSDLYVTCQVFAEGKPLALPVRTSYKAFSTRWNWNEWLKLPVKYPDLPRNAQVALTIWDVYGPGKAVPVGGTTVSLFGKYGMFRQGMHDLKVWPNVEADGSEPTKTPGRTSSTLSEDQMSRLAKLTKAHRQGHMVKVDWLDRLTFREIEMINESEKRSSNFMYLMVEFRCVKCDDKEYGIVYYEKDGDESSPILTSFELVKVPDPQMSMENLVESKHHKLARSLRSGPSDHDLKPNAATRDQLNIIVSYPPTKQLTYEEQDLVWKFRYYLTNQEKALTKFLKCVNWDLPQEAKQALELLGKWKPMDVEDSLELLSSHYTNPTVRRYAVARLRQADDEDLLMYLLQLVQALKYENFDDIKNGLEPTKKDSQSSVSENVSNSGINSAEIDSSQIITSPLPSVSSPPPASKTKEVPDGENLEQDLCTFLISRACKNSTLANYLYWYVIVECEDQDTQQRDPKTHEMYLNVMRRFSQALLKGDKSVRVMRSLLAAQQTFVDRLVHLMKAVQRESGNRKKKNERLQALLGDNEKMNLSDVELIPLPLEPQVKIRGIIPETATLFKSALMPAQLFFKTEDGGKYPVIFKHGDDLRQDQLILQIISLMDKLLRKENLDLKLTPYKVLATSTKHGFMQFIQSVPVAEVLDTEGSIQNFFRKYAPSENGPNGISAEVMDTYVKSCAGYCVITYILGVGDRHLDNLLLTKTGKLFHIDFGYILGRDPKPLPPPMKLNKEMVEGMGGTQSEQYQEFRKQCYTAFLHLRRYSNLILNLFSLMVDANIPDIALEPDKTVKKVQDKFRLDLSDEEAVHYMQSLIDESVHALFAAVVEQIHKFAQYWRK
Sequence of Serine/threonine-protein kinase pim-1 (P11309 whole entry, looked up): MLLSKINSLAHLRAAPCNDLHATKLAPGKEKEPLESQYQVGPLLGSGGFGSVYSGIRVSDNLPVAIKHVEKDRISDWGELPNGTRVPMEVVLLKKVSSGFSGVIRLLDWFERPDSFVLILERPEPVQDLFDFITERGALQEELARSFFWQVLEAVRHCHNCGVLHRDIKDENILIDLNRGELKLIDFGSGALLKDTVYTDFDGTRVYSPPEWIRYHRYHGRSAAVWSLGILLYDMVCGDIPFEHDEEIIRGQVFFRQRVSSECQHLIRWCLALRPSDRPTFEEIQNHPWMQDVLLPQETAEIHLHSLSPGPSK
Sequence of Serine/threonine-protein kinase MRCK gamma (Homo sapiens) (Q6DT37 whole entry): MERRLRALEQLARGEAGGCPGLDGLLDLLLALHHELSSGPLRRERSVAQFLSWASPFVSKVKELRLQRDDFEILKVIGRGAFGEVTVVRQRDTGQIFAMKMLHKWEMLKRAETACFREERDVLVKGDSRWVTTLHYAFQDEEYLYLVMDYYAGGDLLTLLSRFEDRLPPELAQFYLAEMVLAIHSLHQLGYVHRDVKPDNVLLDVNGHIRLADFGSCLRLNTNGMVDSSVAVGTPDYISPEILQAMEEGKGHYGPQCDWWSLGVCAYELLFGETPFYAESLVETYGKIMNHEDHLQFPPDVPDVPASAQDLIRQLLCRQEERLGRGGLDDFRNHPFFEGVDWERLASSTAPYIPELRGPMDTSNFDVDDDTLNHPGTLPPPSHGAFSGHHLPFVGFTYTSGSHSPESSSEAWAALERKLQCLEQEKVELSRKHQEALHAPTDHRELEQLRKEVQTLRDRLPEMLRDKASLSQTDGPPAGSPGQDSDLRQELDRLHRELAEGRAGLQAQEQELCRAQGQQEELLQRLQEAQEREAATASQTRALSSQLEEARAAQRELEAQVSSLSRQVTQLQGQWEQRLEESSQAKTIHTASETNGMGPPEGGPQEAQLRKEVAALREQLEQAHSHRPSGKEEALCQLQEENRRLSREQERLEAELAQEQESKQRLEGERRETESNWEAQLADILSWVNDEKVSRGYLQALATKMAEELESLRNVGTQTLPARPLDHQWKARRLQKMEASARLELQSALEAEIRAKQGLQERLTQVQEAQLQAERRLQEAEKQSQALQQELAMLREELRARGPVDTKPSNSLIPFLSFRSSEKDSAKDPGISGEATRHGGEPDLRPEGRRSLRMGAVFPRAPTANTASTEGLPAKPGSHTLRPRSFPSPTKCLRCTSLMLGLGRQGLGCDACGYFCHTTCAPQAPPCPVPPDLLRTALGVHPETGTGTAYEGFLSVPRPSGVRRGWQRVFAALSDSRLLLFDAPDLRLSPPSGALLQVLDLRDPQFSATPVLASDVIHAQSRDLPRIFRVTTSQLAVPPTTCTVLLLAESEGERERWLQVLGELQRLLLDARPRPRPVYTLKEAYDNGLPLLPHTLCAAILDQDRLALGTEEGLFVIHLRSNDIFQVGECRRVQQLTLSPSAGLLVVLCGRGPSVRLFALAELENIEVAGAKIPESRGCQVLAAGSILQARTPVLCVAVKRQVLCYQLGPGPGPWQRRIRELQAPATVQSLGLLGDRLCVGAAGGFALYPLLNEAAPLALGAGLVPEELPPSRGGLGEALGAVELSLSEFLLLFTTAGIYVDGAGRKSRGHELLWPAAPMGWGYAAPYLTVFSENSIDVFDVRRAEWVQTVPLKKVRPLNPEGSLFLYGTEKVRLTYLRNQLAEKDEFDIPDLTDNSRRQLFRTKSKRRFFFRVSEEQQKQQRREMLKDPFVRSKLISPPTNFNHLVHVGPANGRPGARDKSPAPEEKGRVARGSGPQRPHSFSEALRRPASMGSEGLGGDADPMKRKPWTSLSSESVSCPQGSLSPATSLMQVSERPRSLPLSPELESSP
Sequence of RAC-alpha serine/threonine-protein kinase (P31749 whole entry): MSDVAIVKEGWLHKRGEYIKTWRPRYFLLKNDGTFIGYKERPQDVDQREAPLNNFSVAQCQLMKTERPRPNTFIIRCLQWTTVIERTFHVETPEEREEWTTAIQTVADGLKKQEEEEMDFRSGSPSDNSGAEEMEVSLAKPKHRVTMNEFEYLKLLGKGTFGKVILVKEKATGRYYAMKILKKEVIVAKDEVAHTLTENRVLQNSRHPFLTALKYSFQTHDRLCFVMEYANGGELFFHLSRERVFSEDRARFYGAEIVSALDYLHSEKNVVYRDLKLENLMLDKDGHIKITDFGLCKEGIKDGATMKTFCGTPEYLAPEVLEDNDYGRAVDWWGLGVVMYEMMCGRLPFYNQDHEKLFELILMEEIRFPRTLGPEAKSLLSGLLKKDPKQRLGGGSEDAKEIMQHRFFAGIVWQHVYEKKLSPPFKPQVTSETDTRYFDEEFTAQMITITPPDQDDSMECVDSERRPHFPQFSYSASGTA

COc1cc(Nc2nc(C)cc(-c3cnn4nc(OC)ccc34)n2)cc(C(F)(F)F)c1
% of control [1]: 100%

Nc1cnc(N2CCc3cc(S(=O)(=O)Nc4c(F)cc(Cl)cc4F)cc(N4CCCC4=O)c32)nc1 [TP-020n]
% of control [2]: 100%
% of control [3]: 88%

CC(C)(O)[C@H](F)CN1Cc2cc(NC(=O)c3cnn4cccnc34)c(N3CCOCC3)cc2C1=O
% of inhibition [4]: 90.8%

CC[C@@H]1[C@H](F)C(=O)N[C@@H]1COc1nccc2cc(C(N)=O)c(OC)cc12 [ZIMLOVISERTIB]
% of inhibition ([5]; at 0.01 µM): 6.9%
% of inhibition ([5]; at 0.04 µM): -23%
% of inhibition ([5]; at 0.2 µM): -5.5%
% of inhibition ([5]; at 1 µM): 11.7%
% of inhibition ([5]; at 5 µM): 19.9%
% of inhibition ([6]; at 0.01 µM): 1%
% of inhibition ([6]; at 0.04 µM): -8.9%
% of inhibition ([6]; at 0.2 µM): -9.3%
% of inhibition ([6]; at 1 µM): 2.6%
% of inhibition ([6]; at 5 µM): 6.3%

CCC(=O)N1CCN(c2ccc(-n3c(=O)ccc4cnc5ccc(-c6cnc7ccccc7c6)cc5c43)cc2C(F)(F)F)CC1
% of control [7]: 8.8%

CN(C)C/C=C/C(=O)Nc1ccc(C(=O)N2CCCC(Nc3ncc(Cl)c(-c4c[nH]c5ccccc45)n3)C2)cc1 (stereo not given)
% of control [8]: 93%

N#Cc1cccc(-c2c[nH]c3ncnc(N4CCOCC4)c23)c1
% of inhibition [9]: 6%

CNC(=O)Nc1ccc(-c2nc(N3CC4CCC(C3)O4)c3cnn(C4CCC5(CC4)OCCO5)c3n2)cc1
% of control [10]: 100%
% of control [11]: 98%
% of control [12]: 81%
